Results on two molecules are retold here after PMC6268188, “Comparative Studies of the (Anti) Mutagenicity of Baccharis dracunculifolia and Artepillin C by the Bacterial Reverse Mutation Test” (Molecules, 2012).

Data set [1] deals with S. typhimurium TA97a. As to conditions: positive control, 1.25 μg/ plate, TA 97, + S9.
In data set [2] the test system is S. typhimurium TA97a. As to conditions: mutagen alone (Ctrol +), 1.25 μg/ plate, TA 97a, + S9; listed as AA.
The subject of a further data set is S. typhimurium TA98. The conditions noted are these: positive control, 1.25 μg/ plate, TA 98, + S9.
Data set [3] has as its system S. typhimurium TA100. The conditions noted are these: positive control, 1.25 μg/ plate, TA 100, + S9.
The test system of data set [4] is S. typhimurium TA100.

“And” between values parts separate entries of the source, which are not always exact repeats. Equal entries are not always repeated. Where two headings read alike, the source gives them in different places. Marks after values point to notes of the source that are not given here.

As to `Nc1ccc2cc3ccccc3cc2c1` [2-anthramine, 2-aminoanthracene, reference compound], the “Number of revertants (M ± SD)/ plate” value in the data set with S. typhimurium TA97a [1] was 1789 ± 89 ^e revertants/plate and 1861 ± 23 ^e revertants/plate; in the data set with S. typhimurium TA97a [2] it was 2312 ± 81 revertants/plate and 1861 ± 23 revertants/plate; in the data set with S. typhimurium TA98, 1567 ± 115 ^e revertants/plate and 1498 ± 33^ e revertants/plate; in the data set with S. typhimurium TA100 [3] it was 1456 ± 78 ^e revertants/plate and 1072 ± 25^ e revertants/plate.
aflatoxin B1 [AFB1, reference compound]: the “Number of revertants (M ± SD)/ plate” value in the data set with S. typhimurium TA100 [4] was 2171 ± 33 revertants/plate and 2200 ± 140 revertants/plate.
